From paper PMC9127185, “A Pyridazinone Compound for Effectively Treating Non-alcoholic Steatohepatitis by Targeting THRβ” (Frontiers in Chemistry, 2022)

Legend:
[1] = Tissue distribution study after oral administration; assay type: in vivo, C57BL/6J mice; conditions: for Time of highest tissue level: oral
Procedure: The frozen mice plasma samples and tissue homogenates were thawed at room temperature, vortexed for 1 min, then taken out in 10-μl aliquots in a 1.50-ml centrifuge tube, and this was then mixed with 1 μl of standard solution and 50 μl of internal standard (IS) solution, which was then dissolved and diluted with acetonitrile. Subsequently, it was vortexed for 3 min and at 14,000 rpm centrifugation for 5 min. The adopted 1 μl of the supernatant was used for sample injection analysis.
A total of 24 male C57/BL6J mice were divided into 4 groups at random, with 6 mice in a group for tissue distribution at 0.25, 1, 6, and 24 h. They were given YWS01125 after oral administration of 20 mg/kg, and then sacrificed at 0.25, 1, 6, and 24 h. Tissues from the heart, liver, spleen, lungs, kidneys, stomach, small intestine, colon, fat, muscle, testes, and brain were taken and rinsed with saline solution to remove the blood and connective tissues ([Geng et al., 2015]; [He et al., 2017]; [Jiang et al., 2017]), then put on the filter paper and weighed, quickly. Each tissue sample was homogenized by using five times of the tissue weight saline (w/v). All homogenates were stored at−80 °C until analysis.
The tissue distributions of YWS01125 were investigated in C57BL/6J mice at 0.25, 1, 6, and 24 h after oral administration. The examined organs or tissues included the heart, liver, spleen, lungs, kidneys, stomach, small intestine, colon, fat, muscle, testes, and brain. The linear ranges, correlation coefficients, weight factors, and regression equations for all analytes in the mouse plasma and tissue homogenates are shown in Table 5. The concentration of each tissue at 0.25 h is indicated as stomach > kidneys > liver > colon > small intestine > testes > heart > spleen > lungs > fat; concentration of each tissue at 1 h is small intestine > colon > liver > stomach > kidneys > lungs > heart > fat > testes; concentration of each tissue at 6 h is small intestine > colon > stomach > liver > kidneys > heart; and concentration of each tissue at 24 h is that the whole tissues were not detected (Table 6). […] The content of the compound in the stomach was much higher than that in any other organ. The highest levels were reached 0.25 h after oral administration, then decreased thereafter. For the heart, liver, kidneys, lungs, small intestine, colon, and fat, the highest level was reached 1 h after oral administration, and it reached the highest levels at 0.25 h in the spleen, stomach, and testes.

[2] = system: acute hyperlipidemia mice; experiment: Acute hyperlipidemia mice; assay type: in vivo; conditions: in words, no data shown
[3] = Stability of YWS01125 in mouse plasma under storage conditions; assay type: in vitro ADME; conditions: for Accuracy (RE) after storage / Concentration found after storage, Mean ± SD: mouse plasma
Procedure: The validation was carried out by the US Food and Drug Administration bioanalytical method guidance ([Bioanalytical Method Validation, 2018]; [US Food and Drug Administration, 2018]; [Chen et al., 2019]), namely evaluating selectivity, linearity, accuracy and precision, recovery, matrix effect, and stability. Selectivity was assessed by contrasting the normal blank plasma samples' and analyst plasma samples' chromatograms from six different specimens. Linearity was appraised by different concentrations of the standard medicated plasma samples for 3 days continuously. The peak area was recorded ([Booth et al., 2015]), and weighted (1/x^2) least-squares analysis was used to acquire the standard curve equations. The accuracy and precision were assessed by three different (low, medium, and high) QC samples by diluting with acetonitrile; each concentration had six samples and was continuously accessed for 3 days, and the accuracy, intra-day precision, and inter-day precision were obtained. Recovery was evaluated by comparing the peak area of protein precipitated with acetonitrile first and finally using it to calculate the recovery of the analyst. The matrix effect was measured by comparing the analyst peak area with the saline solution samples and QC samples at the three concentrations. The stability was assessed by defining the three QC levels in several different storage conditions: at room temperature for 6 h, injector stability at 15 °C for a whole night, and after three freeze–thaw cycles.
This experiment investigated the stability of YWS01125 in the mouse plasma at different temperature conditions, namely the auto sampler (15°C) for 12 h of injector stability, room temperature for 6 h, and three freeze–thaw cycles. […] The measured results of YWS01125 are all within the acceptable limits during the entire process (Table 3).

[4] = after oral administration, all time points
[5] = injector stability (15°C, 12 h), added 10 ng/ml
[6] = injector stability (15°C, 12 h), added 50 ng/ml
[7] = injector stability (15°C, 12 h), added 300 ng/ml
[8] = room temperature for 6 h, added 10 ng/ml
[9] = room temperature for 6 h, added 300 ng/ml
[10] = three freeze–thaw cycles, added 10 ng/ml
[11] = three freeze–thaw cycles, added 50 ng/ml
[12] = three freeze–thaw cycles, added 300 ng/ml

Concentration in the brain [1, 4]: not detected | Concentration in the muscle [1, 4]: not detected | Time of highest tissue level ([1]; heart, liver, kidneys, lungs, small intestine, colon, fat): 1 h | Colon tissue concentration ([1]; oral 20 mg/kg, 15 min): 46.70 ± 2.27 | Fat tissue concentration ([1]; oral 20 mg/kg, 15 min): 9.37 ± 0.88 | Heart tissue concentration ([1]; oral 20 mg/kg, 15 min): 7.00 ± 1.05 | Kidneys tissue concentration ([1]; oral 20 mg/kg, 15 min): 129.83 ± 18.31 | Liver tissue concentration ([1]; oral 20 mg/kg, 15 min): 69.93 ± 11.25 | Lungs tissue concentration ([1]; oral 20 mg/kg, 15 min): 5.51 ± 1.22 | Small intestine tissue concentration ([1]; oral 20 mg/kg, 15 min): 31.30 ± 6.38 | Spleen tissue concentration ([1]; oral 20 mg/kg, 15 min): 6.26 ± 0.60 | Stomach tissue concentration ([1]; oral 20 mg/kg, 15 min): 378.67 ± 36.89 | Testes tissue concentration ([1]; oral 20 mg/kg, 15 min): 15.37 ± 2.15 | Colon tissue concentration ([1]; oral 20 mg/kg, 1 h): 357.67 ± 35.31 | Fat tissue concentration ([1]; oral 20 mg/kg, 1 h): 8.69 ± 1.45 | Heart tissue concentration ([1]; oral 20 mg/kg, 1 h): 14.41 ± 5.97 | Kidneys tissue concentration ([1]; oral 20 mg/kg, 1 h): 230.50 ± 15.53 | Liver tissue concentration ([1]; oral 20 mg/kg, 1 h): 283.67 ± 40.72 | Lungs tissue concentration ([1]; oral 20 mg/kg, 1 h): 60.76 ± 4.97 | Small intestine tissue concentration ([1]; oral 20 mg/kg, 1 h): 373.00 ± 33.88 | Stomach tissue concentration ([1]; oral 20 mg/kg, 1 h): 247.17 ± 24.96 | Testes tissue concentration ([1]; oral 20 mg/kg, 1 h): 6.08 ± 4.70 | Colon tissue concentration ([1]; oral 20 mg/kg, 6 h): 60.23 ± 3.87 | Heart tissue concentration ([1]; oral 20 mg/kg, 6 h): 4.01 ± 1.27 | Kidneys tissue concentration ([1]; oral 20 mg/kg, 6 h): 12.73 ± 1.65 | Liver tissue concentration ([1]; oral 20 mg/kg, 6 h): 16.63 ± 1.72 | Small intestine tissue concentration ([1]; oral 20 mg/kg, 6 h): 61.03 ± 4.06 | Stomach tissue concentration ([1]; oral 20 mg/kg, 6 h): 54.49 ± 10.20 | Time of highest tissue level ([1]; spleen, stomach, testes): 0.25 h | Stability in mouse plasma (in words) ([3]; auto sampler 15°C 12 h, room temperature 6 h, three freeze–thaw cycles): maintains stability | Accuracy (RE) after storage [3, 5]: 5.00% | Concentration found after storage, Mean ± SD [3, 5]: 10.67 ± 0.52 ng/mL | Accuracy (RE) after storage [3, 6]: −4.68% | Concentration found after storage, Mean ± SD [3, 6]: 49.91 ± 2.15 ng/mL | Accuracy (RE) after storage [3, 7]: −1.60% | Concentration found after storage, Mean ± SD [3, 7]: 295.17 ± 29.36 ng/mL | Accuracy (RE) after storage [3, 8]: 1.20% | Concentration found after storage, Mean ± SD [3, 8]: 10.29 ± 0.82 ng/mL | Concentration found after storage, Mean ± SD ([3]; room temperature for 6 h, added 50 ng/ml): 52.62 ± 1.73 ng/mL | Accuracy (RE) after storage [3, 9]: 3.88% | Concentration found after storage, Mean ± SD [3, 9]: 299.33 ± 10.07 ng/mL | Accuracy (RE) after storage [3, 10]: −1.80% | Concentration found after storage, Mean ± SD [3, 10]: 9.45 ± 0.57 ng/mL | Accuracy (RE) after storage [3, 11]: −2.20% | Concentration found after storage, Mean ± SD [3, 11]: 47.80 ± 3.96 ng/mL | Accuracy (RE) after storage [3, 12]: −2.66% | Concentration found after storage, Mean ± SD [3, 12]: 289.17 ± 12.77 ng/mL
Compound: N#Cc1cn(-c2cc(Cl)c(Oc3cc(C4CCC4)c(=O)[nH]n3)c(Cl)c2)c(=O)[nH]c1=O [YWS01125, 1-(3,5-dichloro-4-((5-cyclobutyl-6-oxo-1,6-dihydropyridazin-3-yl)oxy)phenyl)-2,4-dioxo-1,2,3,4-tetrahydropyrimidine-5-carbonitrile]
Effect on acute hyperlipidemia mice [2]: lipid-lowering function
